Where “and” joins values, the source holds several entries; their conditions need not be identical. Identical values can stand only once. Like-named read-outs stand apart in the source and are kept apart here.
Legend:
[1] = system: EROD activity of liver microsomes from vehicle-treated hCYP1A1/1A2 mice; assay: EROD in liver microsomes from vehicle-treated hCYP1A1/1A2 mice with quinidine; format: biochemical; conditions: hCYP1A1/1A2 humanized, mouse, pH 7.4
Description: (§2) Protein enzyme/concentrations were 3.46 pmol/ml for recombinant human CYP1A1, 10.8 pmol/ml for recombinant human CYP1A2, 0.05 mg protein/ml for liver microsomes from TCDD-treated hCYP1A1/1A2 mice, and 0.25 mg protein/ml for liver microsomes from TCDD-treated Cyp1 KO mice and vehicle-treated hCYP1A1/1A2 mice. Where needed, total protein concentration in the reaction mixtures was adjusted using Control Bactosomes (Cypex), so all reactions (including those with the recombinant cytochrome P450s) were carried out at a total protein concentration of 0.25 mg protein/ml. Generation of fluorescent product was registered in a kinetic mode (excitation filter, 530 nm; emission filter, 584 nm). Slopes of the linear part of the kinetic curves were calculated using Ascent Software version 2.4.1 (Labsystems). For each well with the reaction medium, there was a control well containing the reaction mixture with resorufin (40 pmol). Before addition of NADPH to the reaction wells, fluorescence was recorded both from the reaction and from the control wells. The average fluorescence was calculated, and the difference between wells with and without resorufin was used for the conversion of the relative fluorescence units to the picomoles of the reaction product.

[2] = target: T1, recombinant human CYP1A1 (Homo sapiens, UniProt P04798); assay: MROD by recombinant human CYP1A1, inhibition by quinidine
T1 sequence (P04798 1-512): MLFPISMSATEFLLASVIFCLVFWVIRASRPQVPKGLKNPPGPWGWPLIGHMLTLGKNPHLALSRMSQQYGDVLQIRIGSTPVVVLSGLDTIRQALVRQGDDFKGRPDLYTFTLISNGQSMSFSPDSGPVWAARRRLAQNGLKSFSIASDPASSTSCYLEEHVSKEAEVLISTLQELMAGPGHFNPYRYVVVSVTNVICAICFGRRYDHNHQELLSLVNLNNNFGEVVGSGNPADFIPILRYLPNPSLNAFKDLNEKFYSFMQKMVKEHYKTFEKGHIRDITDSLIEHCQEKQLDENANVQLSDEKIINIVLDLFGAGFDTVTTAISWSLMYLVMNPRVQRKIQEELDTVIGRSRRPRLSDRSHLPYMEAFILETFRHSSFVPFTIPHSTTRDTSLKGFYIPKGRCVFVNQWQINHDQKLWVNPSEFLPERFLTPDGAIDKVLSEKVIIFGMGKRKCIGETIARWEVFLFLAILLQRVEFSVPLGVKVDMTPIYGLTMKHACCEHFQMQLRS
Description: (§3) Slopes of the linear part of the kinetic curves were calculated using Ascent Software version 2.4.1 (Labsystems).
(§4) Where needed, total protein concentration in the reaction mixtures was adjusted using Control Bactosomes (Cypex), so all reactions (including those with the recombinant cytochrome P450s) were carried out at a total protein concentration of 0.25 mg protein/ml. […] Slopes of the linear part of the kinetic curves were calculated using Ascent Software version 2.4.1 (Labsystems). For each well with the reaction medium, there was a control well containing the reaction mixture with resorufin (40 pmol). Before addition of NADPH to the reaction wells, fluorescence was recorded both from the reaction and from the control wells. The average fluorescence was calculated, and the difference between wells with and without resorufin was used for the conversion of the relative fluorescence units to the picomoles of the reaction product.

[3] = target: T1, recombinant human CYP1A1; assay: biochemical
Description: as §3, §4

[4] = system: EROD activity, non-Cyp1a component of the liver microsomes; assay: in vitro; conditions: mouse, pH 7.4
Description: as §2

[5] = system: MROD activity, non-Cyp1a component of the liver microsomes; assay: in vitro; conditions: mouse, pH 7.4
Description: as §2

[6] = target: T2, recombinant human CYP1A2 (Homo sapiens, UniProt P05177)
T2 sequence (P05177 1-516): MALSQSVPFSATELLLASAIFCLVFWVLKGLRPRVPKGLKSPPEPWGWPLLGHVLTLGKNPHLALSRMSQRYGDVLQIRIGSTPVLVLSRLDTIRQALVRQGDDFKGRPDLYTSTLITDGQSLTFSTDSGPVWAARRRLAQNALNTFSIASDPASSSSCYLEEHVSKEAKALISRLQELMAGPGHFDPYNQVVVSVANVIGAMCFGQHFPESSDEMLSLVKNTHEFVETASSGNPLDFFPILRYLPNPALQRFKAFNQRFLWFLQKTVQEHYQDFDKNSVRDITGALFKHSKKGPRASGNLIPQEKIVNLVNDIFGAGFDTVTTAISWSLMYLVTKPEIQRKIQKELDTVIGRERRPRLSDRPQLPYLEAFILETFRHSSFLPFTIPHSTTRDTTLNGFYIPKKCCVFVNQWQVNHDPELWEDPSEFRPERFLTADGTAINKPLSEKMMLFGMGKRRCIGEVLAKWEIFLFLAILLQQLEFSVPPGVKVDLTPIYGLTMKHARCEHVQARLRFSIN
Description: as §2

[7] = target: T1, recombinant human CYP1A1; assay: EROD by recombinant human CYP1A1 with and without quinidine
Description: as §4

[8] = system: liver microsomes from vehicle-treated hCYP1A1/1A2 mice; assay: MROD in liver microsomes from vehicle-treated hCYP1A1/1A2 mice with quinidine; format: biochemical, mouse; conditions: 200 μM quinidine
Description: as §2

[9] = target: T2, recombinant human CYP1A2; assay: MROD by recombinant human CYP1A2, inhibition by quinidine; conditions: for Kd: MROD, rCYP1A2
Description: as §3, §4

[10] = system: Cyp1a/CYP1A enzymes; assay: TCDD treatment of mice: hepatic total P450, EROD and MROD induction; format: in vivo, mouse; conditions: for increase of total hepatic cytochrome P450: TCDD 10 µg/kg i.p., 48 hours
Description: Mice were given a single intraperitoneal dose of TCDD (10 µg/kg) or vehicle control (corn oil) and then euthanized 48 hours after the dosing using a rising concentration of CO2.
Microsomal fractions were prepared as previously described ([Henderson et al., 2019]). In brief, fresh liver samples were homogenized in ice-cold SET(Sucrose-EDTA-Tris) buffer (0.25 M sucrose, 5 mM EDTA, 20 mM Tris-HCL, pH 7.4; 9 ml buffer/g liver) and centrifuged at 2000 rpm (Sorvall RTH-250, 10 minutes, 4°C). The supernatant was centrifuged (12,000 rpm, Sorvall SS-34 rotor, 20 minutes, 4°C), the resulting supernatant was centrifuged (∼30,000 rpm, Sorvall TFT-45.6, 90 minutes, 4°C) (ThermoFisher Scientific, UK), and microsomal pellets were resuspended in ice-cold SET buffer and stored at −70°C.
Microsomal protein concentration fractions were measured using a modification of a previously described method ([Lowry et al., 1951]) and total hepatic microsomal P450 as previously described ([Omura and Sato, 1964]).
(§1) A mixture of ER (0.93 μM) or MR (0.46 μM) and liver microsomes (0.004–0.27 mg protein/ml) in 100 mM potassium phosphate buffer (pH 7.4) supplemented with MgCl2 (3.3 mM) was incubated at 37°C for 5 minutes before the reaction was initiated by injection of NADPH (final concentration, 1.2 mM). […] Activities in duodenum, ileum, jejunum, colon, lung, kidney, spleen, heart, brain, and testis microsomes were measured as described earlier except for the following adjustments: MR concentration was 1 μM, concentration of total microsomal protein in the reaction was in the range of 0.07–0.43 mg/ml, and amount of resorufin added to calculate the reaction product concentration was 40 pmol.

[11] = system: liver microsomes; assay: Constitutive EROD and MROD activity in liver microsomes of WT, Cyp1a KO and hCYP1A1/1A2 mice; format: in vitro ADME, mouse
Description: as §1

[12] = system: Recombinant rat CYP1A1; parameters: method as in Namkung et al., 1988; conditions: recombinant rat enzymes; ref Namkung et al., 1988; cited from earlier work
[13] = target: T1, recombinant human CYP1A1; parameters: host or cells: bacteria (membrane / 'bacterial microsomes' preparation); method as in Liu et al., 2004; conditions: recombinant human enzymes; ref Liu et al., 2004; cited from earlier work
[14] = system: liver microsomes from TCDD-treated hCYP1A1/1A2 mice; assay: MROD in liver microsomes from TCDD-treated hCYP1A1/1A2 mice: individual contribution of CYP1A1, CYP1A2 and non-Cyp1a; format: in vitro ADME, mouse
Description: as §2

[15] = system: liver microsomes from TCDD-treated Cyp1a KO mice (non-Cyp1a component); assay: MROD in liver microsomes from TCDD-treated Cyp1a KO mice with and without quinidine
Description: as §2

[16] = system: liver microsomes from TCDD-treated Cyp1a KO mice (non-Cyp1a component); assay: EROD in liver microsomes from TCDD-treated Cyp1a KO mice with and without quinidine
Description: as §2

[17] = system: liver microsomes from TCDD-treated hCYP1A1/1A2 mice; assay: EROD in liver microsomes from TCDD-treated hCYP1A1/1A2 mice: individual contribution of CYP1A1, CYP1A2 and non-Cyp1a; format: in vitro ADME, mouse
Description: as §2

[18] = Microsomal stability in mouse liver microsomes (WT, Cyp1a KO, hCYP1A1/1A2)
Description: The reaction was started by addition of 200 μl of NADPH to the remaining mixture of ramelteon with microsomes, and 100-μl aliquots were taken at 1, 2, 5, 10, 15, 20, and 30 minutes after the reaction start; mixed with an equal volume of ice-cold methanol containing the internal standard; incubated on ice for at least 20 minutes; and centrifuged for 15 minutes at 16,000 rcf and +4°C on Centrifuge 5415 R (Eppendorf, Hamburg, Germany). Control incubations were carried out without the cofactor or microsomes. The concentration of ramelteon in the supernatant was measured by high-performance liquid chromatography–tandem mass spectrometry (MS/MS). Chromatographic separation was performed on a Prodigy Phenyl-3 column (5 μm, 50 × 2.0 mm; Phenomenex) using an injection volume of 10 μl and a run time of 7 minutes. Mobile phase consisted of 0.1% solutions of formic acid in water (solvent A) and acetonitrile (solvent B). For elution, a linear gradient from 20% to 60% of solvent B in 4 minutes was used, followed by 3-minute equilibration at 20% B. The multiple reaction monitoring parameters for ramelteon and tacrine were 260.28, 199.2 (precursor ion) and 204.21, 171.11 (product ion), respectively. The concentrations of ramelteon were calculated from the calibration curve.

[19] = hCYP1A1/1A2 mice, liver microsomes
[20] = 200 μM quinidine, increased substrate concentration
[21] = 200 μM quinidine, low concentrations of MR
[22] = absence of inhibitor, low substrate concentrations
[23] = liver microsomes from TCDD-treated hCYP1A1/1A2 mice, nonlinear regression eq. 8
[24] = liver microsomes from TCDD-treated hCYP1A1/1A2 mice, nonlinear regression eq. 7
[25] = quinidine 200 μM, low concentration of ER

## C=C[C@H]1C[N@@]2CC[C@H]1C[C@@H]2[C@@H](O)c1ccnc2ccc(OC)cc12 [quinidine]
[1]
  inhibition at 200 μM: ~20%
[2]; rCYP1A1
  Quinidine Inhibition Type: Competitive
[3]
  IC50: 5.8 µM
  Ki: 2.2 ± 0.18 µM
[4]; Cyp1a KO
  Ki: > 200 µM
[4]
  Ki: 422 ± 18 µM
[5]; Cyp1a KO
  Ki: > 200 µM
[5]
  Ki: 272 ± 28 µM
[6]; quinidine 0, 30, 200 μM
  inhibition of EROD activity catalyzed by CYP1A2: did not inhibit
[7]
  Ki: 3.3 ± 0.35 µM
[7]; EROD, rCYP1A1
  Quinidine Inhibition Type: Mixed
[7]; EROD, rCYP1A1, effect of inhibitor binding on substrate binding
  α: 31 ± 8
[8]
  effect on MROD: not affected
[9]; quinidine 0, 30, 200 μM
  inhibition of MROD activity catalyzed by CYP1A2: did not inhibit

## Clc1cc2c(cc1Cl)Oc1cc(Cl)c(Cl)cc1O2 [TCDD, 2,3,7,8-tetrachlorodibenzo-p-dioxin]
[10]; Cyp1a KO line, liver microsomes
  increase in MROD activity: 4.6 fold
[10]; Cyp1a KO liver
  increase in EROD activity relative to untreated animals: 3 fold
[10]; Cyp1a KO mice
  change in total P450 on TCDD treatment: no change
[10]; TCDD-treated hCYP1A1/1A2 mice
  concentration of hepatic CYP1A1 estimated from EROD Vmax/kcat: 59 pmol/mg microsomal protein
[10]; WT mice
  CYP1A enzymes as share of total hepatic P450 content after TCDD: 58%
  increase of total hepatic cytochrome P450: 2.37 fold
[10]; WT mice, liver microsomes
  increase in EROD activity relative to untreated animals: ~114 fold
  increase in MROD activity: 44 fold
  total hepatic cytochrome P450 after TCDD: 840 pmol/mg protein
[10]; hCYP1A1/1A2 mice
  CYP1A enzymes as share of total hepatic P450 content after TCDD: 46%
  increase of total hepatic cytochrome P450: 1.84 fold
[10]; [19]
  increase in EROD activity relative to untreated animals: 39 fold
  increase in MROD activity: 31 fold
  total hepatic cytochrome P450 after TCDD: 632 pmol/mg protein

## COc1ccc2nc3ccc(=O)cc-3oc2c1 [MR, 7-methoxyresorufin]
[11]; hCYP1A1/1A2 mouse line liver microsomes
  MROD activity compared with WT animals: unchanged
[11]; liver microsomes from Cyp1a KO mice
  decrease of MROD compared with WT animals: approximately 90%
[2]; read-out: Ks1 ± S.E., rCYP1A1
  Kd: 0.47 ± 0.07 µM
[2]; read-out: Ks2 ± S.E., rCYP1A1
  Kd: 1.3 ± 0.18 µM
[12]
  MROD activity of CYP1A1 compared to CYP1A2 (times less active): ~14 times
[13]
  MROD activity of CYP1A1 compared with CYP1A2 (times less active): ~5.8 times
[14]
  Non-Cyp1a contribution to MROD: ≤ 1.5%
[14]; [20]
  CYP1A1 contribution to MROD: ~9%
  CYP1A2 contribution to MROD: ~90%
[14]; [21]
  CYP1A1 contribution to MROD: less than 1%
  CYP1A2 contribution to MROD: ~98%
[14]; absence of inhibitor, 6 μM MR
  CYP1A1 contribution to MROD: ~18%
  CYP1A2 contribution to MROD: ~81%
[14]; [22]
  CYP1A1 contribution to MROD: 49%
  CYP1A2 contribution to MROD: 50%
[14]; [23]
  Vmax for CYP1A1, MROD: 1600 pmol/min/mg protein
  Vmax for CYP1A2, MROD: 2000 pmol/min/mg protein and 1969 pmol/min/mg protein
[15]; read-out: Ks1 ± S.E.
  Kd: 0.96 ± 0.18 µM
[15]; read-out: Ks2 ± S.E.
  Kd: 3.4 ± 0.8 µM
[9]; read-out: Ks1 ± S.E.
  Kd: 0.58 ± 0.08 µM
[9]; read-out: Ks2 ± S.E.
  Kd: 12 ± 3.5 µM

## CCOc1ccc2nc3ccc(=O)cc-3oc2c1 [ER, 7-ethoxyresorufin]
[11]; liver microsomes from Cyp1a KO mice, untreated
  decrease of EROD activity relative to WT animals: 22%
[11]; liver microsomes from hCYP1A1/1A2 mice
  constitutive EROD activity relative to WT: 155%
[12]
  EROD activity of CYP1A1 compared to CYP1A2 (times more active): ~59 times
[13]
  EROD activity of CYP1A1 compared with CYP1A2 (times more active): ~2.8 times
[16]; read-out: Ks1 ± S.E.
  Kd: 0.83 ± 0.04 µM
[16]; read-out: Ks2 ± S.E.
  Kd: 13 ± 1.5 µM
[6]; read-out: Km ± S.E., EROD, rCYP1A2
  Km: 1.2 µM
[17]; absence of quinidine, 1 μM ER
  CYP1A1 contribution to EROD: 70%
[17]; absence of quinidine, 6 μM ER
  CYP1A2 contribution to EROD: ~45%
[17]; absence of quinidine, 6 μM substrate
  CYP1A1 contribution to EROD: ~51%
[17]; absence of quinidine, low (10 pM) substrate concentration
  CYP1A1 contribution to EROD: ~94%
[17]; absence of quinidine, low substrate concentration
  CYP1A2 contribution to EROD: ~4.8%
[17]; [24]
  Vmax for CYP1A1, EROD: 2800 pmol/min/mg protein
  Vmax for CYP1A2, EROD: 1900 pmol/min/mg protein and 1909 pmol/min/mg protein
[17]; [25]
  CYP1A1 contribution to EROD: ~22%
  CYP1A2 contribution to EROD: 70%
  non-CYP1A contribution to EROD: 8%
[7]; read-out: Ks1 ± S.E., EROD, rCYP1A1, productive enzyme-substrate complex
  Kd: 0.09 ± 0.008 µM
[7]; read-out: Ks2 ± S.E., EROD, rCYP1A1, inhibitory enzyme-substrate complex
  Kd: 11 ± 1 µM
[7]; recombinant CYP1A1, Vmax 3300 at 71 pmol/mg protein
  kcat: 0.783 s⁻¹
[7]; recombinant CYP1A1, enzyme concentration 71 pmol/mg protein
  Vmax: 3300 pmol/min/mg protein

## Nc1c2c(nc3ccccc13)CCCC2 [tacrine]
[18]; WT mice liver microsomes, eqs. 15 and 16
  fraction metabolized by Cyp1a2: ~0.68
[18]; hCYP1A1/1A2, mouse, microsomes, 1 µM, pH 7.4
  fraction metabolized by CYP1A2: ~0.60
